Measured values as given in patent publication US11945787B2, “Substituted imidazoles for preventing and/or treating cell or tissue necrosis” (Ela Pharma Ltd, priority 2015, dated 2024).
Where a SMILES comes first, the peptide text is derived from it. The star is where a group is joined. MeOSuc = COC(=O)CCC(=O)*; CH2Cl = ClC*

Tests used:
[1] = test system: Balb/c mice, myocardial ischemia/reperfusion; assay: Myocardial ischemia/reperfusion in mice; type: in vivo, mouse; details: 30 mg/kg IV 20 min before ischemia and at reperfusion; 30 min ischemia, 6 h reperfusion
Protocol: Male Balb/c mice (20-25 g; Charles River; Milan; Italy) were housed in a controlled environment and provided with standard rodent chow and water.
Mice were subjected to 30 minutes of myocardial ischemia and 6 hours of reperfusion, using published methodologies (Yet et al, 2001). Study groups consisted of sham, vehicle control, and inhibitor (n=8/group, see below). Briefly, mice were anesthetized with pentobarbital sodium (60 mg/kg body weight) with additional doses given as needed to maintain anesthesia. Mice were intubated and mechanically ventilated with 100% oxygen. Mice received a first IV dose of the active inhibitor 1-(2-(4-methylpiperazin-1-yl)-4,5-dihydro-1H-imidazol-1-yl)propan-1-one (M059-0891) (30 mg/kg) and their chest was opened. […] The area of necrosis, as a % of AAR was quantified. […]
After the reperfusion period, 1 mL/kg of a 4% thioflavin S solution is injected IV in order to delineate the no-reflow area. […] The areas of ischemic and nonischemic regions are computed and expressed as a percentage of the slice, as are the % of necrotic and non-necrotic tissue. […] AAR (unstained blue area) is expressed as a percentage of the LV mass. The extent of necrosis is calculated as a percentage of the LV mass, and the infarct size expressed as a percentage of the AAR (infarct size=extent of necrosis/extent of AAR).

PC12 cells [2] = assay: KCN-induced necrosis of PC12 cells, LDH release; type: cell-based, rat; details: for inhibition at 0.0001 µM / inhibition at 0.001 µM / inhibition at 0.01 µM / inhibition at 0.1 µM / inhibition at 1 µM: Rattus norvegicus, PC-12, 5 h, KCN, PC12, LDH release (Table 5); for inhibition at 0.0001 µM: 0.1 nM, read-out: % protection at 0.1 nM; for inhibition at 0.001 µM: 1 nM, read-out: % protection at 1 nM; for inhibition at 0.01 µM: 10 nM, read-out: % protection At 10 nM; for inhibition at 0.1 µM: read-out: % protection at 0.1 μM; for inhibition at 1 µM: read-out: % protection at 1 μM
Protocol: The rat pheochromocytoma PC12 cell line was propagated in DMEM medium (Beit Haemek, Israel), supplemented with 5% heat-inactivated calf serum, 10% heat-inactivated horse serum, 2 mM L-glutamine, 100 U/ml penicillin and 100 μg/ml streptomycin. PC12 cells in logarithmic phase were seeded at a concentration of 1.2×10^5/well in 96-well plates and incubated overnight.
Thereafter, the cells were washed twice and maintained in RPMI-1640 (U-937cells) and DMEM (PC-12 cells) glucose-free medium, supplemented with 2 mM pyruvate and 10% dialyzed FCS for one hour. Then cells were treated with or without KCN (Merck, Germany) at the indicated concentrations for 7 hours (U-937 cells), or for 5 hours (PC12 cells).
Elastase inhibitors II (MeOSuc-AAPA-CMK) and elastase inhibitor III (MeOSuc-AAPV-CMK) were purchased from Calbiochem-Novabiochem, USA. Compound Gly-Phe diazomethylketone was purchased from MP Biomedicals, USA. All the compounds disclosed in Table 1 hereinabove were purchased from ChemDiv, San Diego, CA. The compounds were dissolved in DMSO and were administered 30 min before addition of the cell death inducer. The final concentration of DMSO, added to all samples, was 0.1%, which had no effect by itself siRNA and cell transfection
The amount of LDH released from lysed cells is a sensitive measure of cell death. Necrotic cell death was measured in 96-well plates using Promega CytoTox 96 LDH assay kit. LDH content from the cells lysed in 0.1% Triton X-100 for 10 min was used as an index of total LDH. The LDH released in culture medium was used as an index of necrotic cell death and the percentage from total LDH was calculated. The protection by the inhibitor was calculated based on comparing percentage of LDH release in the presence and in the absence of the inhibitor. The inhibitors were also added to totals, blanks and controls. Absorbance at 490 nm was measured by ELISA reader (BioTec).
These compounds were tested for their ability to inhibit necrosis induced by KCN in PC12 cells. The necrotic mode of cell death in this system was validated as previously described. PC12 cells were challenged with KCN as described above. The protective results of the compounds against KCN-induced necrosis assessed using LDH release method are shown below in Table 5. The IC50 values of these inhibitors is in the range of tens to single nanomolar.

elastase-like activity = assay: Elastase-like activity in lysates of KCN-treated U-937 cells (MAAPV substrate); type: biochemical, human; details: treatment of intact cells
[3] = test system: C57BL/6J mice, closed head trauma; assay: Closed head injury (traumatic brain injury) in mice; type: in vivo, mouse
Protocol: The closed head injury method was used to determine the effect of the elastase inhibitor on the development of brain necrosis and on the neurological status assessed using the neurological severity score (NSS). NSS test was performed 1 hour after trauma. During NSS test, various reflexes, ability to move, beam balance, beam walk and other behavior parameters like seeking and exiting from a cycle were monitored. Development of necrosis was measured by assessing necrotic space in brain slices stained with 2,3,5-triphenyl-2H-tetrazolium chloride (TTC).
C57BL/6J mice weighing 40+4 g (mean±SD) were used in the study. A weight-drop device was used to deliver a shock to the scull resulting in a controlled cerebral injury. Impact was delivered by a silicone-coated 5 mm metal tip extruding from a platform that falls down a frame. This model of cranial injury has been used in previous studies [Feldman Z et al., J Neurosurg (1995) 83:1060-1066; Shapira Y et al., J Neurosurg Anesthesiol (1995) 7:17-25].). All animal procedures and care techniques were approved by the Ben-Gurion University of the Negev Committee for the Ethical Care and Use of Animals in Research.
Mice were prepared for surgery by anesthetization with isoflurane and allowed to breathe spontaneously. Maintenance of adequate anesthesia for the experimental procedure was confirmed by loss of corneal reflexes. Once the corneal reflexes were abolished, a midline scalp incision was made and the scalp and underlying muscles were moved laterally. Closed head trauma (CHT) was delivered to the skull over the frontal portion of the left cerebral hemisphere. 1 minute after the trauma 100 μg of elastase inhibitor II or III in its vehicle (DMSO solution), were injected intracerebraspinaly by direct delivery into the cisterna magna. The vehicle itself was previously found to have no effect.
In addition to the wild type C57BL/6J mice, neutrophil elastase knockout mice strain B6.129X1-Elane were also examined. All procedures were approved by the Ethics Committee of Ben-Gurion University of Negev.

PC12 cells [4] = assay: Rescue of KCN-treated PC12 cells, XTT viability up to 48 h; type: cell-based, rat; details: 5 h KCN, then full DMEM 24 or 48 hours; FIG. 7C
[5] = test system: C57BL/6J mice, acetaminophen hepatotoxicity; assay: APAP-induced liver toxicity in mice; type: in vivo, mouse; details: IP 4 hours after APAP 300 mg/kg; measured 24 hours; dose dependent
Protocol: Wild type C57BL/6J mice weighing 23+3 grams were used, 6 mice per treatment. The mice were obtained from Harlan (Israel). All animal procedures and care techniques were approved by the Ben-Gurion University of the Negev Committee for the Ethical Care and Use of Animals in Research. Mice were fast for 16h prior to administration of a single intraperitoneal (i. p.) dose of acetaminophen (N-acetyl-p-aminophenol) APAP (300 mg/kg). 4 hours after the APAP injection, the mice were injected i. p. with the tested compound, dissolved in vehicle (20% DMSO in PBS). The control mice were injected with the vehicle only. 24h after APAP injection, the mice were sacrificed and blood collected from the heart. Heparin was used as an anti-clotting additive for plasma collection. The plasma samples were centrifuged at 4000 g at room temperature for 10 min. The supernatant was collected for measurement of ALT and AST levels. The enzyme levels were measured with an autoanalyzer in Soroka's Biochemistry Medical Center.

Question: What does the source list for `CCC(=O)N1CCN=C1N1CCN(C)CC1` [M059-0891, 1-(2-(4-methylpiperazin-1-yl)-4,5-dihydro-1H-imidazol-1-yl)propan-1-one]?
Answer: necrosis and infarct size [1]: significant reduction; inhibition at 0.0001 µM (PC12 cells [2]): 25%; inhibition at 0.001 µM (PC12 cells [2]): 36%; inhibition at 0.01 µM (PC12 cells [2]): 55%; inhibition at 0.1 µM (PC12 cells [2]): 84%; inhibition at 1 µM (PC12 cells [2]): 85%

Question: How did the “induction of elastase-like enzymatic activity in intact cells” value (elastase-like activity) turn out when `COC(=O)CCC(=O)N[C@@H](C)C(=O)N[C@@H](C)C(=O)N1CCC[C@H]1C(=O)N[C@@H](C)C(=O)CCl` [EI II, MeOSuc-AAPA-CMK] (MeOSuc-AAPA-CH2Cl) was run?
Answer: abrogated the induction

Question: What about the “neurological severity score (NSS)” value ([3]; 100 μg into cisterna magna 1 min after trauma, 1 hour post injury) of the same compound?
Answer: significantly reduce neurological damage

Question: And the “space of necrotic tissue, TTC staining” value ([3]; 100 μg into cisterna magna, untreated traumatized 50%)?
Answer: 25 % of the damaged hemisphere

Question: And the “cell viability (XTT) after KCN treatment” value (PC12 cells [4])?
Answer: protective effect

Question: And the “KCN-induced necrotic cell death assessed by LDH release” value (PC12 cells [2]; PC12, KCN 5 hours, FIGS. 6, 7A-B)?
Answer: inhibited in a dose dependent manner

Question: What about the “inhibition of necrosis induced by KCN at high concentrations” value (PC12 cells [2]; up to 300 μM) of the same compound?
Answer: significantly inhibited necrosis

Question: What about the “effect of inhibitor by itself on PC-12 cells” value (PC12 cells [2]; up to 300 μM, without KCN) of the same compound?
Answer: inactive by themselves

Question: Which results are given for `O=C(c1csc(N2CCCCC2)n1)N1CCCC1` [Z601-4253, (2-(piperidin-1-yl)thiazol-4-yl)(pyrrolidin-1-yl)methanone]?
Answer: ALT level in blood [5]: significantly reduced; AST level in blood [5]: significantly reduced; inhibition at 0.0001 µM (PC12 cells [2]): 29%; inhibition at 0.001 µM (PC12 cells [2]): 34%; inhibition at 0.01 µM (PC12 cells [2]): 61%; inhibition at 0.1 µM (PC12 cells [2]): 74%; inhibition at 1 µM (PC12 cells [2]): 100%
